Legend:
Format in all cases: cell-based
[1] = target: T1, human STING (hSTING) (Homo sapiens, UniProt Q86WV6); experiment: hSTING ISRE-luc reporter assay in 293T cells; conditions: 24 hours
T1 construct: expressed in transfected cells; host or cells: 293T
Description: ISRE-luc (reporter), pRL-TK (internal control) and hSTING-expressing plasmids were transiently transfected into 293T cells. Cells were exposed to DMSO vehicle control or compounds for 24 hours. Experiments were done in triplicate.

[2] = target: T2, ETV1 (Homo sapiens, UniProt P50549); experiment: ETV1-dependent reporter assay in HEK293 cells; conditions: 48 hours
T2 construct: expressed in transfected cells; host or cells: HEK293
T2 sequence (P50549 1-477): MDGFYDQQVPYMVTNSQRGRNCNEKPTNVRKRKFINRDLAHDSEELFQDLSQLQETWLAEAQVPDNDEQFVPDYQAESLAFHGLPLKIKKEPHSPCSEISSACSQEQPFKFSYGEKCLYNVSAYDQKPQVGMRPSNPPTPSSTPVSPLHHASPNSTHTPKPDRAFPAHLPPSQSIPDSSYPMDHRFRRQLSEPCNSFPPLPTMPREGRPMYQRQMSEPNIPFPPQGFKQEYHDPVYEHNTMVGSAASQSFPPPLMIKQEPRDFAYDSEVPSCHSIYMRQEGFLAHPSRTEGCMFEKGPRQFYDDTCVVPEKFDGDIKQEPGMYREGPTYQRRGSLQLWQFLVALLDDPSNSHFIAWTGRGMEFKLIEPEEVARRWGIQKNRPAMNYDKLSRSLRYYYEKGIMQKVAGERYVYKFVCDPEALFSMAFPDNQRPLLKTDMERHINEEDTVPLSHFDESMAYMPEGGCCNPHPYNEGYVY
Description: (§1) HEK293 cells were transiently transfected with empty vector (for the NT) or ERG-expressing plasmid as well as pRL-TK (internal control) and PUx3-Luc reporter. Cells were then exposed to DMSO vehicle or compounds at designated doses for 48 hours. Experiments were done in triplicate.
Experiments were done as described above in FIG. 1.1a) except that ERG plasmid was replaced by ETV1 plasmid.

[3] = target: T3, human GATA2 (Homo sapiens, UniProt P23769); experiment: GATA2-dependent reporter assay in IHH cells; conditions: GATA-Luc reporter, 48 h
T3 construct: expressed in transfected cells; host or cells: IHH
T3 sequence (P23769 1-480): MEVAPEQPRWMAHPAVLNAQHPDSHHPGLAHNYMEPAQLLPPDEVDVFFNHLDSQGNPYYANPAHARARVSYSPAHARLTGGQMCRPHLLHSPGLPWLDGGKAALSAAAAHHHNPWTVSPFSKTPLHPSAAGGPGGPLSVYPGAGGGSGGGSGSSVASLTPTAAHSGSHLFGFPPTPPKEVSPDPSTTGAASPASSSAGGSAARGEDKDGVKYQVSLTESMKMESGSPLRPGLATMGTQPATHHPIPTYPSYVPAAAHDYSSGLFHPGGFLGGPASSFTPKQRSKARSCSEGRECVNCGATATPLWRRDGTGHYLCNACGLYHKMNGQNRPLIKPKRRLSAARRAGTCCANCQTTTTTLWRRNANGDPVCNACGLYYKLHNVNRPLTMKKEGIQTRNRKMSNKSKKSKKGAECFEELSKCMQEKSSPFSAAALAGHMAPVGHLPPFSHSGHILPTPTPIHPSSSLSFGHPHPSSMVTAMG
Description: K7174 is a known GATA2 inhibitor. The IHH cells were transiently transfected with empty vector (for the NT) or human GATA2-expressing plasmid as well as pRL-TK (internal control) and GATA-Luc reporter plasmids. Cells were exposed to DMSO vehicle or compounds for 48 h. Experiments were in triplicate.

[4] = target: T4, ERG (Homo sapiens, UniProt P11308); experiment: ERG-dependent reporter assay in HEK293 cells; set-up: expressed in transfected cells; host or cells: HEK293; conditions: PUx3-Luc reporter, 48 hours, designated doses
T4 sequence (P11308 1-486 isoform P11308-3): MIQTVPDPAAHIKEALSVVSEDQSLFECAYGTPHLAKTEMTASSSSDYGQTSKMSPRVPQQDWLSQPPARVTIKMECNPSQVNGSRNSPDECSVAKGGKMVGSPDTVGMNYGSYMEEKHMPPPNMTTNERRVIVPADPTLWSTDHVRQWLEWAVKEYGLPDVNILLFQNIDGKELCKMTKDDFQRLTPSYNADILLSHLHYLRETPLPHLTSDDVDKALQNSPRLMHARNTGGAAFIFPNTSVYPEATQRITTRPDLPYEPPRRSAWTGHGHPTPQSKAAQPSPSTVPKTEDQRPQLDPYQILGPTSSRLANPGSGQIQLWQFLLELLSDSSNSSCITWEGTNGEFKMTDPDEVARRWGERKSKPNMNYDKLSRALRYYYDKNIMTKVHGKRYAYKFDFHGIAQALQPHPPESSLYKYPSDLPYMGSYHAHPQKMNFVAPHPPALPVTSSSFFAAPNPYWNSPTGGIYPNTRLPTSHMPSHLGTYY
Description: as §1

[5] = target: T5, human GATA3 (Homo sapiens, UniProt P23771); experiment: GATA3-dependent reporter assay in IHH cells; conditions: 48 hours, 10 μM
T5 construct: expressed in transfected cells; host or cells: IHH
Description: The IHH cells were transiently transfected with empty vector (for the NT) or human GATA3-expressing plasmid as well as pRL-TK (internal control) and GATA-Luc reporter plasmids. Cells were exposed to DMSO vehicle or compounds for 48 hours. Experiments were done in triplicate.

T1 sequence (Q86WV6 whole entry H232R): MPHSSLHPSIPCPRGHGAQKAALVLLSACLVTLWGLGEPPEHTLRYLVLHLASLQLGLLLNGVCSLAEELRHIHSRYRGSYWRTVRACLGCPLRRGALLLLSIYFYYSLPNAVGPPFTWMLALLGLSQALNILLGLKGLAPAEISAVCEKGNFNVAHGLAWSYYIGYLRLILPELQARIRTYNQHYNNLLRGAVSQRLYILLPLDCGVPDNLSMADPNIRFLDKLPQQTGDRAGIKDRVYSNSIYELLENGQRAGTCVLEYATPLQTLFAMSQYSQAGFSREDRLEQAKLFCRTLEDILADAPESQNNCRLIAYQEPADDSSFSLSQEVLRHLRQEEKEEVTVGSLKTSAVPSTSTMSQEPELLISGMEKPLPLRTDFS
T5 sequence (P23771 whole entry): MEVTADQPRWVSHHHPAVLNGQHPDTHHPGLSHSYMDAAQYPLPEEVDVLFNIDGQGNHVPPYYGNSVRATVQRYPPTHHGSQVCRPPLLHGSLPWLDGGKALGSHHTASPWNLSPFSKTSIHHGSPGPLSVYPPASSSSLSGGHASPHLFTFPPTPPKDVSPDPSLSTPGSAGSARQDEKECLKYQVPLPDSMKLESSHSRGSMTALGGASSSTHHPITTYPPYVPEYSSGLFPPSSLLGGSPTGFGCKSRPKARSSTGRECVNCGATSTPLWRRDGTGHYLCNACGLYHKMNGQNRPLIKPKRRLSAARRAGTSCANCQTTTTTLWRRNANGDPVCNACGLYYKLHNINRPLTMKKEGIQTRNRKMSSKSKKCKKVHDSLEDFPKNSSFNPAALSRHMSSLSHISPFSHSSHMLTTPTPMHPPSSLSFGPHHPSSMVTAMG

| Structure (SMILES) | activation of hSTING in ISRE-luc reporter assay [1] | ETV1 inhibition in ETV1-dependent reporter assay [2] | further results |
| --- | --- | --- | --- |
| FC(F)(F)c1ccc(-c2nc(CCc3c[nH]c4ccccc34)oc2-c2ccc(C(F)(F)F)cc2)cc1 [Compound 918] | activate hSTING |  |  |
| FC(F)(F)c1cc(CCc2nc(-c3ccccc3)c(-c3ccccc3)o2)cc(C(F)(F)F)c1 [Compound 689] | activate hSTING |  |  |
| O=C1Nc2ccccc2C1Cc1nc(-c2ccccc2)c(-c2ccccc2)o1 (stereo not drawn) [Compound 700] |  | ETV1 inhibitors |  |
| COc1cccc(-c2oc(CCCc3c[nH]c4ccccc34)nc2-c2ccc[nH]2)c1 [Compound 830] | activate hSTING | ETV1 inhibitors | GATA2 inhibition in GATA2-dependent reporter assay [3]: GATA2 inhibitors |
| C(=N\c1oc(-c2ccccc2)nc1Sc1ccccc1)/c1ccccc1 [Compound V151] |  |  | ERG inhibition in ERG-dependent reporter assay [4]: ERG inhibitors |
| Cc1cccc(-c2nc(Cc3c[nH]c4ccccc34)oc2-c2cccc(C)c2)c1 [Compound 651] |  | ETV1 inhibitors | ERG inhibition in ERG-dependent reporter assay [4]: ERG inhibitors |
| Clc1ccc(-c2nc(Cc3c[nH]c4ccccc34)oc2-c2ccc(Cl)cc2)cc1 [Compound 661] |  | ETV1 inhibitors | ERG inhibition in ERG-dependent reporter assay [4]: ERG inhibitors |
| c1coc(-c2nc(CCCc3c[nH]c4ccccc34)oc2-c2ccco2)c1 [Compound 831] | activate hSTING |  | GATA2 inhibition in GATA2-dependent reporter assay [3]: GATA2 inhibitors |
| Fc1ccccc1-c1nc(Cc2c[nH]c3ccccc23)oc1-c1ccccc1F [Compound 655] |  | ETV1 inhibitors |  |
| FC(F)(F)c1ccccc1-c1nc(CCc2c[nH]c3ccccc23)oc1-c1ccccc1C(F)(F)F [Compound 920] | activate hSTING |  |  |
| Fc1ccc2[nH]cc(Cc3nc(-c4ccccc4)c(-c4ccccc4)o3)c2c1 [Compound 636] |  | ETV1 inhibitors |  |
| Fc1cccc(-c2oc(Cc3c[nH]c4ccccc34)nc2-c2ccco2)c1 [Compound 838] | activate hSTING | ETV1 inhibitors | GATA2 inhibition in GATA2-dependent reporter assay [3]: GATA2 inhibitors |
| COc1cccc(-c2nc(CCc3c[nH]c4ccccc34)oc2-c2cccc(OC)c2)c1 [Compound 641] | activate hSTING | ETV1 inhibitors |  |
| Clc1ccccc1-c1nc(Cc2c[nH]c3ccccc23)oc1-c1ccccc1Cl [Compound 662] |  | ETV1 inhibitors | ERG inhibition in ERG-dependent reporter assay [4]: ERG inhibitors |
| Clc1cccc(-c2nc(CCCc3c[nH]c4ccccc34)oc2-c2cccc(Cl)c2)c1 [Compound 762] | activate human STING (hSTING) |  |  |
| COc1ccc(-c2nc(Cc3c[nH]c4ccccc34)oc2-c2ccc(O)cc2)cc1 [Compound 697] |  | ETV1 inhibitors | ERG inhibition in ERG-dependent reporter assay [4]: ERG inhibitors |
| Fc1ccccc1-c1nc(CCCc2c[nH]c3ccccc23)oc1-c1ccccc1F [Compound 678] | activate hSTING |  | ERG inhibition in ERG-dependent reporter assay [4]: ERG inhibitors |
| Cc1[nH]c2ccccc2c1Cc1nc(-c2ccccc2)c(-c2ccccc2)o1 [Compound 637] |  | ETV1 inhibitors |  |

| Structure (SMILES) | activation of hSTING in ISRE-luc reporter assay [1] | ETV1 inhibition in ETV1-dependent reporter assay [2] | further results |
| --- | --- | --- | --- |
| Fc1ccc(-c2nc(CCCc3c[nH]c4ccccc34)oc2-c2ccc(F)cc2)cc1 [Compound 671] | activate hSTING |  |  |
| COc1ccc(-c2nc(Cc3c[nH]c4ccccc34)oc2-c2ccc(OC)cc2)cc1 [Compound 660] | activate hSTING |  |  |
| COc1ccc2[nH]c(C)c(Cc3nc(-c4ccccc4)c(-c4ccccc4)o3)c2c1 [Compound 639] |  |  | ERG inhibition in ERG-dependent reporter assay [4]: ERG inhibitors |
| FC(F)(F)c1cccc(Cc2nc(-c3ccccc3)c(-c3ccccc3)o2)c1 [Compound 687] |  |  | GATA2 inhibition in GATA2-dependent reporter assay [3]: GATA2 inhibitors; activity against GATA3 in GATA3-dependent reporter assay [5]: inactive against GATA3 |
| Cn1cc(Cc2nc(-c3ccccc3)c(-c3ccccc3)o2)c2ccccc21 [Compound 638] |  | ETV1 inhibitors |  |
| c1ccc(-c2nc(Cc3c[nH]c4ccccc34)oc2-c2ccccc2)cc1 [Compound 708] |  | ETV1 inhibitors |  |
| COc1ccc(-c2oc(Cc3c[nH]c4ccccc34)nc2-c2ccc(O)cc2)cc1 [Compound 699] |  |  | ERG inhibition in ERG-dependent reporter assay [4]: ERG inhibitors |
| C(=C\c1c[nH]c2ccccc12)/c1nc(-c2ccccc2)c(-c2ccccc2)o1 [Compound 657] |  | ETV1 inhibitors |  |
| c1coc(-c2nc(CCc3c[nH]c4ccccc34)oc2-c2ccco2)c1 [Compound 919] | activate hSTING |  |  |
| Cc1ccc(-c2nc(Cc3c[nH]c4ccccc34)oc2-c2ccc(C)cc2)cc1 [Compound 654] |  | ETV1 inhibitors |  |
| C(=C\c1nc(-c2ccccc2)c(-c2ccccc2)o1)/c1ccoc1 [Compound 686] |  |  | GATA2 inhibition in GATA2-dependent reporter assay [3]: GATA2 inhibitors; activity against GATA3 in GATA3-dependent reporter assay [5]: active against GATA3 |
| FC(F)(F)c1ccccc1-c1nc(Cc2c[nH]c3ccccc23)oc1-c1ccccc1C(F)(F)F [Compound 659] |  |  | ERG inhibition in ERG-dependent reporter assay [4]: ERG inhibitors |
| COc1ccccc1-c1nc(CCCc2c[nH]c3ccccc23)oc1-c1ccccc1OC [Compound 916] | activate hSTING |  |  |
| FC(F)(F)c1ccccc1-c1nc(CCCc2c[nH]c3ccccc23)oc1-c1ccccc1C(F)(F)F [Compound 677] | activate human STING (hSTING) |  |  |
| FC(F)(F)c1cccc(-c2nc(Cc3c[nH]c4ccccc34)oc2-c2cccc(C(F)(F)F)c2)c1 [Compound 656] | activate hSTING | ETV1 inhibitors |  |
| FC(F)(F)c1ccc(-c2nc(Cc3c[nH]c4ccccc34)oc2-c2ccc(C(F)(F)F)cc2)cc1 [Compound 653] | activate hSTING | ETV1 inhibitors |  |
| Fc1ccc(-c2nc(Cc3c[nH]c4ccccc34)oc2-c2ccc(F)cc2)cc1 [Compound 652] |  | ETV1 inhibitors |  |
| COc1ccccc1-c1nc(CCc2c[nH]c3ccccc23)oc1-c1ccccc1OC [Compound 917] | activate hSTING |  |  |

Reference: patent US10844051B2, “Substituted oxazoles for the treatment of cancer” (THE ROYAL INSTITUTION FOR THE ADCANCEMENT OF …, priority 2015, dated 2020)
